Test results published in US20100305087A1, “ACTIVE PHARMACEUTICAL INGREDIENT ON A SOLID SUPPORT, AMORPHOUS AND WITH AN IMPROVED SOLUBILITY” (Lek Pharmaceuticals d.d., priority 2007, published 2010).

How the values were obtained:
[1] = Dissolution profile of ezetimibe preparations in water (amount dissolved over time); type: physicochemical
Description: The results are shown in Tables 1 to 3, and FIGS. 1 to 3.

[2] = Dissolution profile of atovaquone preparations in 10 mM triethylamine/HCl (pH=10) buffer; type: physicochemical
[3] = cited from earlier work

O=C1[C@H](CC[C@H](O)c2ccc(F)cc2)[C@@H](c2ccc(O)cc2)N1c1ccc(F)cc1 [Amorphous ezetimibe, 1-(4-fluorophenyl)-3-[3-(4-fluorophenyl)-3-hydroxy-propyl]-4-(4-hydroxyphenyl)-azetidin-2-one]
Amount dissolved ([1]; Ezetimibe and Aerosil 200, time 10 min): 0.19 µg/mL | Amount dissolved ([1]; Ezetimibe and Aerosil 200, time 20 min): 0.20 µg/mL | Amount dissolved ([1]; Ezetimibe and Aerosil 200, time 45 min): 0.27 µg/mL | Amount dissolved ([1]; Ezetimibe and Aerosil 200, time 100 min): 0.41 µg/mL

O=C1C(=O)c2ccccc2C(O)=C1C1CCC(c2ccc(Cl)cc2)CC1 (centres unmarked) [Crystalline atovaquone, 3-[4-(4-chlorophenyl)cyclohexyl]-4-hydroxy-naphthalene-1,2-dione]
Amount dissolved ([2]; Atovaquone and Aerosil 200, time 10 min): 0.16 µg/mL | Amount dissolved ([2]; Atovaquone and Aerosil 200, time 20 min): 0.7 µg/mL | Amount dissolved ([2]; Atovaquone and Aerosil 200, time 60 min): 4.1 µg/mL | Amount dissolved ([2]; Atovaquone and Aerosil 200, time 100 min): 6.2 µg/mL

O=C1[C@H](CC[C@H](O)c2ccc(F)cc2)[C@@H](c2ccc(O)cc2)N1c1ccc(F)cc1 [Crystalline ezetimibe, 1-(4-fluorophenyl)-3-[3-(4-fluorophenyl)-3-hydroxy-propyl]-4-(4-hydroxyphenyl)-azetidin-2-one]
Amount dissolved ([1]; Ezetimibe and Prosolv, time 10 min): 0.08 µg/mL | Amount dissolved ([1]; Ezetimibe and Prosolv, time 20 min): 0.13 µg/mL | Amount dissolved ([1]; Ezetimibe and Prosolv, time 60 min): 0.12 µg/mL | Amount dissolved ([1]; Ezetimibe and Prosolv, time 100 min): 0.25 µg/mL

O=C1C(=O)c2ccccc2C(O)=C1C1CCC(c2ccc(Cl)cc2)CC1 (centres unmarked) [atovaquone, 3-[4-(4-chlorophenyl)cyclohexyl]-4-hydroxy-naphthalene-1,2-dione]
log P/hydrophobicity value [3]: 5.251

O=C1[C@H](CC[C@H](O)c2ccc(F)cc2)[C@@H](c2ccc(O)cc2)N1c1ccc(F)cc1 [ezetimibe, 1-(4-fluorophenyl)-3-[3-(4-fluorophenyl)-3-hydroxy-propyl]-4-(4-hydroxyphenyl)-azetidin-2-one]
log P/hydrophobicity value [3]: 4.584
